Results as given in paper PMC8907848 (Frontiers in Chemistry, 2022).
Like-named read-outs stand apart in the source and are kept apart here.

Legend:
FIPV M^pro [1] = target: T1, FIPV M^pro (Feline coronavirus, UniProt Q98VG9); assay: FRET-based cleavage assay with purified FIPV Mpro (Ki and IC50 determination); assay type: biochemical, FIPV WSU-79/1146
Protocol: A fluorescence resonance energy transfer (FRET)–based cleavage assay was performed using a synthetic peptide fluorescent substrate containing the cleavage site of FIPV M^pro [Abz-SVTLQ↓SG-Tyr (NO2)-R] as described previously ([Vuong et al., 2020]; [Vuong et al., 2021]). […] The enzymatic reactions using 1–500 μM of FRET substrate in activity buffer (25 mM Bis-Tris, 1 mM DTT, pH 7.0) were started with the addition of protease. For IC50 determination, 100 nM of FIPV M^pro was incubated with an inhibitor concentration range of 0.25 nM–100 µM in activity buffer. The reaction was started with 40 µM of FRET substrate. The fluorescence signal of the FRET peptide cleavage product was monitored at an emission wavelength of 420 nm with excitation at 320 nm, using a Cytation 5 Imaging Multi-Mode Reader (BioTek) for 7 min at 37°C. The kinetic data were analyzed using computer-fit calculation (Prism 9.0, GraphPad Software). […] The experiments were performed in triplicate.

SARS-CoV-2 M^pro = conditions: read-out: SARS-CoV-2 M^pro IC50; mean ± SEM, n = 3; ref Vuong et al. (2021); cited from earlier work
SARS-CoV M^pro = conditions: ref Arutyunova et al., 2021; cited from earlier work
FIP virus (FIPV) = system: FIP virus (FIPV); parameters: method as in Kim et al., 2016; Pedersen et al., 2018; conditions: experimentally induced and naturally occurring FIP; ref Kim et al., 2016; Pedersen et al., 2018; cited from earlier work
FIPV M^pro [2] = target: T1, FIPV M^pro; parameters: method as in Kim et al., 2012; conditions: ref Kim et al., 2012; cited from earlier work
[3] = target: Feline infectious peritonitis virus main protease (FIPV M^pro, FIPV WSU-79/1146) (feline infectious peritonitis virus (FIPV WSU-79/1146)); assay: crystal structure; FIPV M^pro at 10 mg/ml incubated with 5x molar excess of GC373 or GC376 (4°C, 2 h), sitting drop, room temperature; GC376: 2.0 M ammonium sulfate, 0.1 M Bis-Tris pH 5.5; GC373: 0.2 M calcium chloride, 0.1 M MES, 20% PEG 6000, pH 6.0

T1 sequence (Q98VG9 2904-3205): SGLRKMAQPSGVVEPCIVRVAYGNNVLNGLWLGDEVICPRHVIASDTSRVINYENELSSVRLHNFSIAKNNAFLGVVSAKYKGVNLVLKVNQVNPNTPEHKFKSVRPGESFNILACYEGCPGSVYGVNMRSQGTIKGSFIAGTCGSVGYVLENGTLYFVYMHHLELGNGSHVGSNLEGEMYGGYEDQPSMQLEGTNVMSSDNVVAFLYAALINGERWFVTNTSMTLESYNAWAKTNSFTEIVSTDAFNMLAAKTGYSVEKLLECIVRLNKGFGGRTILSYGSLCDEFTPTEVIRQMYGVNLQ

Molecule	IC50 (FIPV M^pro [1]) [nM]	IC50 (SARS-CoV-2 M^pro) [nM]	also measured
O=C[C@H](C[C@@H]1CCNC1=O)NC(=O)[C@H](CC1CC1)NC(=O)OCc1ccccc1 [1a]	100 ± 70	–	–
CC(C)C[C@H](NC(=O)OCc1cccc(F)c1)C(=O)N[C@H](C=O)C[C@@H]1CCNC1=O [1d]	70 ± 10	130 ± 40	–
CC(C)C[C@H](NC(=O)OCCc1cccc(Cl)c1)C(=O)N[C@H](C=O)C[C@@H]1CCNC1=O [1e]	130 ± 20	150 ± 50	–
CC(C)C[C@H](NC(=O)O[C@@H](C)c1ccccc1)C(=O)N[C@H](C=O)C[C@@H]1CCNC1=O [1g]	430 ± 90	270 ± 90	–
O=C(N[C@@H](CC1CC1)C(=O)N[C@@H](C[C@@H]1CCNC1=O)C(O)S(=O)(=O)O)OCc1cccc(F)c1 (some centres unmarked) [2c]	30 ± 10	70 ± 10	–
O=C(N[C@@H](CC1CC1)C(=O)N[C@@H](C[C@@H]1CCNC1=O)C(O)S(=O)(=O)O)OCCc1cccc(Cl)c1 (some centres unmarked) [2d]	50 ± 20	–	–
COc1cccc2[nH]c(C(=O)N[C@@H](CC3CC3)C(=O)N[C@@H](C[C@@H]3CCNC3=O)C(O)S(=O)(=O)O)cc12 (some centres unmarked) [2e]	60 ± 20	–	–
CC(C)CC(NC(=O)OCc1ccccc1)C(=O)NC(C=O)CC1CCNC1=O (centres unmarked) [GC373]	–	–	Ki against SARS-CoV Mpro (in words) (SARS-CoV M^pro): nanomolar range
CC(C)CC(NC(=O)OCc1ccccc1)C(=O)NC(CC1CCNC1=O)C(O)S(=O)(=O)O (centres unmarked) [GC376, reference compound]	–	–	IC50 (FIPV M^pro [1]; 100 nM FIPV Mpro, 40 µM FRET substrate, 37°C, mean ± SEM, n = 3, read-out: FIPV M^pro IC50): 130 ± 20 nM; Ki (FIPV M^pro [1]; read-out: Calculated Ki): 2.1 nM; Effect on progression of FIP in cats (FIP virus (FIPV)): successful in reversing the progression; IC50 against FIPV Mpro (in words) (FIPV M^pro [2]): sub-micromolar
Feline infectious peritonitis virus main protease (FIPV M^pro, FIPV WSU-79/1146) (enzyme)	–	–	stoichiometry N [3]: 2
